Experimental data published in PMC3790782, “Optimization and Pharmacological Validation of a Leukocyte Migration Assay in Zebrafish Larvae for the Rapid In Vivo Bioactivity Analysis of Anti-Inflammatory Secondary Metabolites” (PLoS ONE, 2013).
Converted amounts (≈) assume the structure as drawn. Where a name gives a salt, the structure may show the parent alone. Marks after values point to notes of the source that are not given here.

Columns and labels:
[1] = tested on: zebrafish larvae; conditions: 4 dpf zebrafish larvae, 8 h post-incubation; not more than 2 of 10 larvae with signs of toxicity
Protocol: For the toxicological analysis, ten 4 dpf zebrafish larvae were used per well in 24-well culture plates. Incubation of each set of larvae at 28°C (±0.5) was done with SAIDs, NSAIDs and non-AIDs at concentrations ranging from 0.1 µM to 500 µM, with NPs at concentrations ranging from 1 µM to 500 µM, and with PEs at concentrations ranging from 1 ug/ml to 1 mg/ml. Controls containing only vehicle (1% DMSO) and untreated larvae were processed in parallel. Examination of each set of larvae was done under light microscopy (Carl Zeiss Stemi 2000C) each hour during a period of 8 h, and a final evaluation at 24 h post-incubation. At 8 h post-incubation, signs of toxicity, e.g. pericardial oedema, cardiovascular defects (arrhythmia or decreased circulation), balance defects (loss of normal posture), locomotor defects (decreased touch response), and ultimately death were scored for every drug, NP, and PE to further establish their maximum tolerated concentration (MTC). […] In this context, only non-toxic concentrations (below the MTC) were considered for further leukocyte migration analysis. All the toxicological assays were performed in duplicate using a different batch of zebrafish larvae for each set of experiments.
Toxicological assessment of all the samples analyzed in our study was done prior to the evaluation of their anti-inflammatory properties. The maximum tolerated concentrations (MTCs) were determined at 8 h post-treatment according to toxicological parameters including pericardial oedema, cardiovascular defects (arrhythmia or decreased circulation), balance defects (loss of normal posture), locomotor defects (decreased touch response), and death. […] Vehicle-treated (1% DMSO) and untreated larvae were processed in parallel to minimize experimental variability in this toxicological evaluation.

[2] = tested on: leukocyte migration in 4 dpf zebrafish larvae; test: LPS-enhanced leukocyte migration assay (tail transection, MPO staining, RLM); format: in vivo, zebrafish (Danio rerio); parameters: Anti-inflammatory activity at MTC: concentration or dose not given beside the values; conditions: for Relative leukocyte migration (RLM) / response vs control in vivo at 1 µM / response vs control in vivo at 10 µM / response vs control in vivo at 30 µM / response vs control in vivo at 100 µM / response vs control in vivo at 300 µM / response vs control in vivo at 500 µM / Leukocyte migration (RLM): tail cut + 10 µg/ml LPS, relative to 1% DMSO control; for response vs control in vivo at 1 µM / response vs control in vivo at 10 µM / response vs control in vivo at 30 µM / response vs control in vivo at 100 µM / response vs control in vivo at 300 µM / response vs control in vivo at 500 µM: Danio rerio, Leukocyte, 8 h; for Anti-inflammatory activity at MTC: (1−RLM)x100; for RLM (zebrafish-based assay): at the MTC given in Table 2
Protocol: The lipopolysaccharide- (LPS−)enhanced leukocyte migration assay was carried out by triplicate for each sample in 4 dpf zebrafish larvae. The total incubation period of the assay was eight hours. Initially, a pre-incubation step (i.e. prior to tail transection) of one hour at 28°C (±0.5°C) was carried out in 24-well culture plates. Ten larvae per well were incubated in 1 ml of testing mix, consisting of a specific concentration of each sample and the amount of 0.3 X Danieau’s medium necessary to complete 1 ml. Immediately after pre-incubation, complete tail transection in each larva was performed. Zebrafish larvae were first anesthetized by immersion in 0.3 X Danieau’s medium containing 70 µg/ml tricaine (ethyl 3-aminobenzoate, Sigma-Aldrich) and then tail transection near the tip was performed with a sterile scalpel under light microscopy (Carl Zeiss Stemi 2000C). Larvae were then placed in fresh 0.3 X Danieau’s medium without anesthetic for a few minutes until the final incubation period. For the last step, a new testing mix was prepared including 10 µg/ml lipopolysaccharides from Salmonella typhosa ATCC 10749 (LPS, Sigma-Aldrich Chemical) to enhance leukocyte migration to the injured zone. The final incubation step (i.e. subsequent to tail transection) of the injured larvae in contact with the pro-inflammatory agent and with the specific concentration of each SAID, NSAID, non-AID, NP, and PE at 28°C (±0.5°C) was done for 7 h. Within this period, sporadic evaluations of the larvae were done to examine their viability during the time of the assay. Larvae that completed the incubation time were fixed overnight in 4% formaldehyde (Sigma-Aldrich) at 4°C. Controls containing only the vehicle (1% DMSO) were processed in parallel.
Fixed larvae were gently washed twice with 1 X PBST (PBS-1X phosphate buffered saline, Gibco +0.1% Tween 20) for 5–10 min and then incubated at room temperature in 1 ml of freshly prepared Leucognost® Pox (Merck) staining solution, made according the directions of the provider. Observation of stained black-brown cells (leukocytes) in the larvae was possible within 15 min of incubation. Evaluation of the migrating leukocytes, particularly surrounding the injured region, in each larva was done under light microscopy (Carl Zeiss Stemi 2000C) and scoring was done using a migration scale established to semi-quantify the amount of migrating leukocytes on one side of each larva.
The average of the value achieved for each of the ten larvae tested in triplicate for one sample is expressed as relative leukocyte migration (RLM) according to the formula: RLM = leukocyte migration of the larva/average leukocyte migration of the negative control.
To determine the extent of leukocyte migration generated after exposing 4 dpf zebrafish larvae to mechanical and biological stimuli – namely tail transection and LPS exposure – we used a commercially available whole-mount cytochemical staining method (Leucognost® Pox, Merck) to detect MPO activity in situ. To minimize the number of handling steps post-staining, this method was chosen over the alternative myeloperoxidase stain Sudan Black B [26], [27], which also stains phospholipids, neural fats and sterols. In our experiments, we visualized migrating leukocytes in 4 dpf larvae at 8 h post-injury. Microscopic evaluations of MPO-stained larvae allowed us to score the degree of leukocyte migration at the trauma site according to a comparative scale that we established particularly for this purpose (Figure 2). Myeloperoxidase-positive cells, appearing as black-brown dots, were counted in a segment at the edge of the tail on one side of every larva (Figure 2). The number of leukocytes was then graded according to the comparative scale and subsequently converted into a relative value expressed as the relative leukocyte migration (RLM) activity for the total number or larvae for one sample.

[3] = tested on: TNF-α, RAW 264.7; conditions: cited from earlier work
[4] = tested on: COX, rat peritoneal leukocytes; parameters: method as in PMID 19378317, PMID 16220571, PMID 21443976; conditions: cited from earlier work
[5] = tested on: IL-4, RBL-2H3; parameters: method as in PMID 19378317, PMID 17982104, PMID 21443976; conditions: cited from earlier work
[6] = tested on: TNF-α, RBL-2H3; parameters: method as in PMID 19378317, PMID 17982104, PMID 21443976; conditions: cited from earlier work
[7] = tested on: IL-1β, human monocytes; parameters: method as in PMID 19378317, PMID 17982104, PMID 21443976; conditions: cited from earlier work
[8] = tested on: PGE2, rat macrophages; conditions: cited from earlier work
[9] = tested on: TNF-α, iNOS, macrophages; parameters: method as in PMID 19378317, PMID 15668926; conditions: cited from earlier work
[10] = tested on: NO, PGE2, COX-2, RAW 264.7; parameters: method as in PMID 21771629, PMID 21870032; conditions: cited from earlier work

Structure (SMILES)	Maximum tolerated concentration (MTC) [1]	Relative leukocyte migration (RLM) ([2]; 200 µM)	Relative leukocyte migration (RLM) ([2]; 0.1 µM)	response vs control in vivo at 1 µM ([2]; 1 µM)	response vs control in vivo at 10 µM [2]	response vs control in vivo at 30 µM ([2]; 30 µM)	response vs control in vivo at 100 µM [2]	Anti-inflammatory activity at MTC [2]	RLM (zebrafish-based assay) [2]	also measured
Nc1nc(N)nc(N)n1 [melamine]	200 µM	0.85								
C[C@@H]1C[C@H]2[C@@H]3CCC4=CC(=O)C=C[C@]4(C)[C@@]3(F)[C@@H](O)C[C@]2(C)[C@@]1(O)C(=O)CO [dexamethasone]		0.06	0.81							
COc1ccc2c(c1)c(CC(=O)O)c(C)n2C(=O)c1ccc(Cl)cc1 [indomethacin]	200 µM	0.09	0.72							
NC12CC3CC(CC(C3)C1)C2 [amantadine, amantadine hydrochloride]	200 µM	0.82								
C[C@]12C=CC(=O)C=C1CC[C@@H]1[C@@H]2[C@@H](O)C[C@@]2(C)[C@H]1CC[C@]2(O)C(=O)CO [prednisolone]		0.07	0.66							
O=c1cc(-c2ccc(O)c(O)c2)oc2cc(O)cc(O)c12 [Luteolin, luteolin]	500 µM			63%	61%	55%	48%	59%	0.41	response vs control in vivo at 300 µM ([2]; 300 µM): 44%; response vs control in vivo at 500 µM ([2]; 500 µM): 41%; IC50 [3]: < 1 µM; IC50 [4]: 100 µg/mL (≈ 349 µM)
CN1C(C(=O)Nc2ccccn2)=C(O)c2ccccc2S1(=O)=O [piroxicam]	100 µM		0.85				3%			
O=c1cc(-c2ccc(O)cc2)oc2cc(O)cc(O)c12 [Apigenin, apigenin]	500 µM			74%	53%	54%	37%	65%	0.35	Leukocyte migration (RLM) ([2]; 500 µM): 0.35 ^***; response vs control in vivo at 300 µM ([2]; 300 µM): 37%; response vs control in vivo at 500 µM ([2]; 500 µM): 35%; Anti-inflammatory activity at MTC ([2]; listed as apigenin): 65%; IC50 [5]: 3.6 µM; IC50 [6]: 5.3 µM; IC50 [7]: 10 µM
O=c1c(O)c(-c2ccc(O)c(O)c2)oc2cc(O)cc(O)c12 [Quercetin, quercetin]	500 µM			65%	55%	35%	42%	69%	0.31	Leukocyte migration (RLM) ([2]; 500 µM): 0.31 ^*; response vs control in vivo at 300 µM ([2]; 300 µM): 40%; response vs control in vivo at 500 µM ([2]; 500 µM): 31%; Anti-inflammatory activity at MTC ([2]; listed as quercetin): 69%; IC50 [3]: 1 µM; IC50 [8]: 13.9 µM; IC50 [9]: 50 µM
O=C1C[C@@H](c2ccc(O)cc2)Oc2cc(O)cc(O)c21 [Naringenin, naringenin]	30 µM			67%	42%	37%		63%	0.37	Leukocyte migration (RLM) ([2]; 30 µM): 0.37 ^**
O=C(O)Cc1ccccc1Nc1c(Cl)cccc1Cl [diclofenac]	10 µM		0.69		13%					
C[C@]1(OC(=O)/C=C/c2ccccc2)C[C@@H](O)[C@]2(O)C=CO[C@@H](O[C@@H]3O[C@H](CO)[C@@H](O)[C@H](O)[C@H]3O)[C@@H]21 [Harpagoside, harpagoside]	300 µM			48%	29%	30%	15%			Leukocyte migration (RLM) ([2]; 300 µM): 0.12 ^*; response vs control in vivo at 300 µM ([2]; 300 µM): 12%
CN(C)CCC=C1c2ccccc2COc2ccccc21 [doxepin, doxepin hydrochloride]						71%				
CC(C)=CCC[C@](C)(O)[C@@H]1CC=C(C)CC1 [(−)-α-bisabolol]	30 µM							52%	0.48	Leukocyte migration (RLM) ([2]; 1 µM): 0.53 ^*; Leukocyte migration (RLM) ([2]; 30 µM): 0.48; IC50 [10]: 100 µM
